Reference: patent US20110129935A1, “PROTEIN STABILITY ASSAY USING A FLUORESCENT REPORTER OF PROTEIN FOLDING” (James Cook University, priority 2008, published 2011)

How the values were obtained:
[1] = target: CAT-GFP (Escherichia coli, UniProt P62577); assay type: binding; conditions: 10 mM chloramphenicol, 9.2 mM ampicillin or 6.4% ethanol
Experimental: (§1) Protein samples (6 or 10 μl) were incubated along a temperature gradient in a thermocycler for 5 minutes or 30 minutes for the determination of Tagg, or at a constant temperature and increasing times to determine kagg. After heat treatment and centrifugation as described above, 3 or 5 μl of supernatant were transferred to a black 96-well plate (Nunclon, Nunc, Rochester, N.Y., USA), diluted with 47 or 50 μl respectively of Buffer A or Buffer B and the fluorescent Ffold was determined with a fluorescence plate reader (Victor V Wallace, Perkin-Elmer, Melbourne VIC, Australia). The excitation and emission filters were set at 355 nm and 535 nm respectively, with 40 nm band-width. Data were normalized against the fluorescence of an untreated sample.
(§2) To determine the effect of ligands, CAT-GFP reaction premix contained 9.2 μl of CAT-GFP (71 μM in Buffer A), 51.6 μl of Buffer A and 4.2 μl of either 50 mg/ml chloramphenicol in ethanol or 50 mg/ml ampicillin in water. GK-GFP reaction premix contained 9.3 μl of GK-GFP (70 μM), 49.20 of Buffer A and 6.5 μl of either Buffer A+10 mM glycerol or Buffer A+10 mM glucose. Reaction volume was 10 μl and 5 μl of the soluble fraction was analysed by plate reader after centrifugation.
The S method was then further developed to evaluate the effect of ligand binding and additives in a rapid throughput format for the three test proteins using replicates of single timepoints (FIG. 6a-6c). […] Indeed, the temperature used to test for chloramphenicol binding had to be kept quite low and for a short time as GFP would have been destabilized in more stringent conditions. […] This non-specific stabilization could also be attributed to the low stringency of the conditions.

[2] = target: Tus-GFP (Escherichia coli, UniProt P16525, Q80R); test: Isothermal aggregation of Tus-GFP with additives (kagg, S method); set-up: species or system E. coli; conditions: 46° C., 25% glycerol in 0.5× Buffer B
Experimental: as §1, with “sample. […]” for “sample.”
The kagg (s^−1) measured the loss of fluorescence of the soluble fraction of proteins over time. The kagg values were determined by the exponential fit of normalized Ffold as follows:
To evaluate the kinetic parameters of the system, a 96-well plate format was designed that enabled measurement of the residual Ffold of Tus-GFP over time. Isothermal aggregation reactions were monitored at 46° C. to quantify the effect of stabilizing or destabilizing salts and additives on the kagg of Tus-GFP (FIG. 3). […]

[3] = target: GK-GFP (Escherichia coli, UniProt P0A6F3); test: Rapid throughput S method, Ffold of GK-GFP with ligands or other proteins; assay type: binding, E. coli; conditions: 1 mM glycerol in presence of BSA 15 μM
Experimental: as §1
as §2, with “centrifugation. […]” for “centrifugation.”

Sequence of GK-GFP (P0A6F3 other isoform, or with tags, fused parts or gaps): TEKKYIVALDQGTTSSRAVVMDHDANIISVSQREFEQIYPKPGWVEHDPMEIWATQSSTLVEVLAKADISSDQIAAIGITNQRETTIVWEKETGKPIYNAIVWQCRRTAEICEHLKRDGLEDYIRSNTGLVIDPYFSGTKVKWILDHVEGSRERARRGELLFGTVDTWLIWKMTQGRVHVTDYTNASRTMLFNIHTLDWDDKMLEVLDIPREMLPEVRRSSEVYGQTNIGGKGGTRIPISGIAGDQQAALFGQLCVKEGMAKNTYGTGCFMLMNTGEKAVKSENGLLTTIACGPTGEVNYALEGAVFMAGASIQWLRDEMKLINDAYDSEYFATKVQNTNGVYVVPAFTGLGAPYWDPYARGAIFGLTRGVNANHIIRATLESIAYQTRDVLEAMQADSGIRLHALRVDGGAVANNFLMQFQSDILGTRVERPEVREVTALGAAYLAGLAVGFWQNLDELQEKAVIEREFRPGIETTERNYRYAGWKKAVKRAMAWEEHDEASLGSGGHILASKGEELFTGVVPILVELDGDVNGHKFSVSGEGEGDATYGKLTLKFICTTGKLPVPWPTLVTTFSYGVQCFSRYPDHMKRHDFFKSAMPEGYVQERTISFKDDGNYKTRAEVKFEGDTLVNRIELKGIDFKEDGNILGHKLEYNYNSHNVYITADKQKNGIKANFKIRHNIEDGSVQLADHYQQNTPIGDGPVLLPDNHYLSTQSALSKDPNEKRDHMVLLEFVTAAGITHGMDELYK

Compound: CC1(C)S[C@@H]2[C@H](NC(=O)[C@H](N)c3ccccc3)C(=O)N2[C@H]1C(=O)O [ampicillin]
- stabilization of CAT-GFP (Ffold) [1]: moderate stabilization

Compound: O=C(N[C@H](CO)[C@H](O)c1ccc([N+](=O)[O-])cc1)C(Cl)Cl [chloramphenicol]
- stabilization of CAT-GFP (Ffold) [1]: stabilizing

Compound: CCO [ethanol]
- stabilization of CAT-GFP (Ffold) [1]: almost the same stabilizing effect

Compound: OCC(O)CO [glycerol]
- stabilization effect on Tus-GFP (kagg) [2]: largest stabilization effect
- stabilization of GK-GFP (Ffold) [3]: almost completely stabilized
